# Reference: patent US20250205275A1, “POLYMERIC IRON BINDING COMPOSITIONS AND METHODS OF USE FOR TREATING DISEASES ASSOCIATED WITH EXCESS DAMAGING REACTIVE IRON” (Fe Pharmaceuticals (Canada) Inc., priority 2022, published 2025)
# Marks after values point to notes of the source that are not given here.
# What was measured:
# [1] = molecular target: T1, ferroportin (Homo sapiens, UniProt Q9NP59); conditions: clinical testing, advanced to phase II; cited from earlier work
# T1 sequence (Q9NP59 1-571): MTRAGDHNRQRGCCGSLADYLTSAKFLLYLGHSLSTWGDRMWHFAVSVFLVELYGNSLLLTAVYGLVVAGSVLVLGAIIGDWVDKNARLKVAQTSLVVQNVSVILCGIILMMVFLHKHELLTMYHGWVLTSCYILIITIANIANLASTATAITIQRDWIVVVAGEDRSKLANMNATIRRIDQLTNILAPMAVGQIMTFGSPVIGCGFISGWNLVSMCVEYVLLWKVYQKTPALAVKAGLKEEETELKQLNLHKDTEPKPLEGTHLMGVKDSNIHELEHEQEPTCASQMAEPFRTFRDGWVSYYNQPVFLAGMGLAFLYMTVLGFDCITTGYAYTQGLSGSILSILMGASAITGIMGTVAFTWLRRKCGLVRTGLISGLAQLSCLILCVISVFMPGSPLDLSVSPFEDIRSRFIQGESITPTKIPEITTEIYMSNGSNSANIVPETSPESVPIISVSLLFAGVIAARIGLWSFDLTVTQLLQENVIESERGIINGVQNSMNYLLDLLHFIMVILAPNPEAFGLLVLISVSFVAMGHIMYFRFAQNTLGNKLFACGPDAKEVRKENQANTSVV
# [2] = system: ferroptosis; conditions: cited from earlier work
# [3] = system: Gram positive bacteria; conditions: cited from earlier work
# [4] = system: Gram negative bacteria; conditions: cited from earlier work
# [5] = system: microbial growth; conditions: cited from earlier work
# [6] = system: cells challenged with high-glucose; conditions: cited from earlier work
# [7] = in vivo; cited from earlier work
# [8] = cited from earlier work
# [9] = system: fungi; conditions: cited from earlier work
# [10] = Resistance of chelator-bound iron(III) to chemical reduction by dithionite; type: physicochemical; conditions: 0.1 M MOPS, pH 7.4
# Source text: Chemical reduction of iron from Fe(III) to Fe(II) is part of the chemical reductive cycling of iron that drives ROS production in and around cells and also facilities removal of iron from intracellular stores for use elsewhere in the body. Generally iron in extracellular compartments of the body is in the Fe(III) form this helping to limit iron related toxic reactions as free Fe(II) would quickly oxidize to Fe(III) and this could drive, for example, ROS production. Thus, the relative ability of an iron chelator to hold Fe(III) and resist its reduction to Fe(II) would have benefits. Correspondingly, the relative chemical reducibility of Fe(III) to Fe(II) as bound by deferiprone, MAHMP and DIBI was tested. The different iron loaded chelators were first prepared so that iron only sufficient to ensure initial presence of fully coordinated iron(III) was used, i.e. a ratio of three chelator molecules of either deferiprone or MAHMP to each iron(III) atom present. DIBI with its measured MAHMP content was also similarly loaded with iron added just sufficient to satisfy its MAHMP iron binding sites on a similar basis. The iron-chelates were then reacted with dithionite (DT, [S2O4]^2−) a chemical reductant for iron and the relative changes in absorbance intensity at 460 nm was used to monitor for iron reduction with results as shown in FIG. 2.
# [11] = Iron(III) binding affinity by NaOH titration with UV-vis spectra (HypSpec2014); conditions: 25° C.
# Experimental: The titrations were carried out under a wet nitrogen atmosphere to avoid concentration changes due to evaporation. Aliquots of each complex solution were taken periodically during the titration and the UV-vis spectra of the aliquots were collected as a batch once the titration was completed. The pH range studied spanned the equilibrium between bis and tris coordination for the ligands as these are the only two species expected at physiological pH. For Fe3-DIBI the spectra were collected 24 h after collecting the batch of aliquots. The spectra were processed using HypSpec2014 to determine the iron(III) binding affinity of […] and deferiprone (DFP) as reference as summarized in Table 7.
# [12] = clinical trials; cited from earlier work
# [13] = Approx, based on close analogue 36 and FBS0701; cited from earlier work
# [14] = doxorubicin-induced mouse model; cited from earlier work
Compound,MIC Gram positive bacteria [3],MIC Gram negative bacteria [4],Antimicrobial activity [5],cell viability [6],Hydrophobicity/ hydrophilicity log P [8],MIC fungi [9],other results
O=C(NCc1ncccc1F)c1coc(CCNCCc2nc3ccccc3[nH]2)n1 [VIT-2763],–,–,–,–,–,–,lowering serum iron levels [1]: good potential for lowering serum iron levels; toxicity [1]: low toxicity
"O=C([O-])CN(CC(=O)[O-])CC(=O)[O-].[Fe+3] [ferric-nitriloacetate (NTA), ferric-nitriloacetate]",–,–,–,–,–,–,effect on ferroptosis [2]: promote ferroptosis and renal carcinoma
CC(=O)N(O)CCCCCNC(=O)CCC(=O)N(O)CCCCCNC(=O)CCC(=O)N(O)CCCCCN [Deferoxamine],>913^k μM,>913^k μM,"Poor,",rescued cell viability,−3 ^b,>228^n μM,infections in test animals [7]: fatal infections; effect on ferroptosis [2]: suppression
O=C(O)c1ccc(-n2nc(-c3ccccc3O)nc2-c2ccccc2O)cc1 [Deferasirox],21^l μM,133^m μM,Low,–,4.3 ^b,67^p μM,–
Cc1c(O)c(=O)ccn1C [Deferiprone],575^e μM,287^k μM,Very Low,–,−0.8 ^b,1151^n μM,reduction of bound iron(III) by dithionite (intensity of 460 nm band) [10]: readily reduced; Log β1 iron binding formation constant [11]: 15.01(1); Log β2 iron binding formation constant [11]: 27.5(7); Log β3 iron binding formation constant [11]: 36.7(1)
COCCOCCOc1ccc(C2=N[C@@](C)(C(=O)O)CS2)c(O)c1 [SP-420],–,–,–,–,−0.89,–,renal toxicity [12]: undesirable renal toxicity; Fe binding constant log K [13]: 33.1-33.4
CCOC(=O)c1ccc(NC2CCCCC2)c(N)c1 [ferrostatin-1],–,–,–,rescued cell viability,–,–,cardiac function [14]: improved cardiac function; mortality [14]: reduced mortality
C=C(C)C(=O)NCCn1ccc(=O)c(O)c1C [MAHMP],–,–,–,–,–,–,reduction of bound iron(III) by dithionite (intensity of 460 nm band) [10]: The same reaction was observed; Log β1 iron binding formation constant [11]: 15.01(1); Log β2 iron binding formation constant [11]: 27.9(1); Log β3 iron binding formation constant [11]: 38.22(6)
O=c1c(O)c(-c2ccc(O)c(O)c2)oc2cc(O)cc(O)c12 [quercetin],–,–,–,rescued cell viability,–,–,–
